Tests used:
[1] = system: cellular GAPDH gene; test: Northern blot of U1 cells, cellular RNA; assay type: cell-based; conditions: U1 cells treated with Tat and peptide
Method: (§1) For northern blot analysis, U1 or HLM1 (Tat HIV proviral clone, Sadaie M R, et al. (1994), Virology, 202:513-518) cells were transfected with either Tat protein, or Tat protein in combination with peptides and collected 48 hrs later. Total RNA was extracted using the Trizol reagent (Gibco/BRL). RNA concentration was measured and equivalent amounts of RNA (5 μg) were loaded on a formaldehyde-agarose gel. The RNA was blotted onto nitrocellulose and hybridized with a randomly primed ^32P-labelled HIV-1 proviral genome BH10 (Lofstrand, Inc.), histone H2b, β-Actin or GAPDH probe (Oncor Science, Inc.). Blots were washed, exposed and quantitated using a PhosphorImager (Molecular Dynamics) […].
(§2) Cellular RNAs including actin, histone H2b, and GAPDH, were monitored in cells treated with Tat and peptide analogs. […] In contrast, no change in the expression of the cellular GAPDH gene was observed.

[2] = system: CMV promoter; test: CAT assay with pCMV-CAT reporter; assay type: cell-based; conditions: decreased from 17.8
Method: (§3) Cells were electroporated as described previously (Kashanchi F, et al. (1992), Nucleic Acids Res, 20:4673-4674). CEM CD4^+ lymphocytes (12D7) (as well as U1 and HeLa cells described in subsequent examples) were kept at a density of 0.5 to 0.8×10^6 cells/ml with media added daily. Typically, 5×10^6 cells were electroporated with purified peptides, Tat protein and/or 5 μg of a reporter plasmid. Synthetic Tat peptides were purified by HPLC to 95 percent purity (Peptide Technologies Corporation, Gaithersburg, Md.). All peptides were analyzed for purity on a 4-20 percent gradient SDS/PAGE followed by silver staining. Recombinant Tat protein was purified by reverse phase HPLC and tested for functional activity in an in vitro transcription assay and in vivo electroporation into CEM cells (Kashanchi F, et al. (1992), Nucleic Acids Res, 20:4673-4674; Bohan Calif., et al. (1992) Gene Expr, 2:391-407). Tat peptide, Tat protein, and the reporter HIV LTR-CAT were mixed with cells and electroporated using a cell porater apparatus (Gibco/BRL, Gaithersburg, Md.). Cell mixtures were electroporated at 800 μF, 230 volts, in RPMI 1640 media without fetal calf serum. Following electroporation, cells were plated in 10 ml of complete media and samples collected 48 hours later for either CAT assay, p24 Gag antigen capture assay or northern blot analysis. […]

[3] = system: HIV virus replication in U1 cells; test: Tat-induced virus production in latently infected U1 cells, p24 antigen capture assay; assay type: cell-based, HIV-1; conditions: Tat protein 2.5 μg
Method: as §3

[4] = system: TBP/Tat-activated transcription; test: Gal4-Tat / CMV-TBP activated minimal HIV-1 promoter CAT assay in CEM cells; assay type: cell-based; conditions: CEM T-cells, Gal4-TATA+/TAR- reporter
Method: It was of interest to determine if the Tat peptide analog targeted the interaction of Tat with TBP in vivo. For these experiments, we used a minimal HIV-1 promoter (−31 to +21) with Gal4 binding sites located upstream of the promoter. CEM cells were transfected with combinations of Gal4-TATA^+/TAR^− reporter plasmid, Gal4-Tat and a CMV-TBP expression plasmid. Southgate CD, et al. (1991), Genes Dev, 5:2496-2507; Horikoshi N, et al. (1995), Mol Cell Biol, 15:227-234. Peptides were added at the time of electroporation. Following electroporation, cells were plated in complete media, harvested at 48 hours and CAT assays performed. The Gal4-TAT^+/TAR^− plasmid contains six Gal4 binding sites, followed by the HIV sequence from −31 to […]. This construct contains no Sp1 sites or a TAR element.
The ability of Gal4-Tat to activate this promoter is dependent upon the presence of exogenously added TBP. […] Xhou Q, et al. (1995), EMBO J, 14:321-328; Huang L M, et al. (1994), EMBO, 13:2886-2896. We next examined if the peptides were capable of downregulating the TBP/Tat-activated transcription by electroporating CEM T-cells with either wild type or peptide 41/44.

[5] = system: HTLV-1 promoter; test: CAT assay with HTLV-1 LTR (pU3R CAT) reporter, basal and Tax1 transactivated; assay type: cell-based; conditions: for basal transcription of the HTLV-1 promoter: decreased from 19
Method: (§4) Cells were electroporated as described previously (Kashanchi F, et al. (1992), Nucleic Acids Res, 20:4673-4674). CEM CD4^+ lymphocytes (12D7) (as well as U1 and HeLa cells described in subsequent examples) were kept at a density of 0.5 to 0.8×10^6 cells/ml with media added daily. Typically, 5×10^6 cells were electroporated with purified peptides, Tat protein and/or 5 μg of a reporter plasmid. Synthetic Tat peptides were purified by HPLC to 95 percent purity (Peptide Technologies Corporation, Gaithersburg, Md.). All peptides were analyzed for purity on a 4-20 percent gradient SDS/PAGE followed by silver staining. Recombinant Tat protein was purified by reverse phase HPLC and tested for functional activity in an in vitro transcription assay and in vivo electroporation into CEM cells (Kashanchi F, et al. (1992), Nucleic Acids Res, 20:4673-4674; Bohan Calif., et al. (1992) Gene Expr, 2:391-407). Tat peptide, Tat protein, and the reporter HIV LTR-CAT were mixed with cells and electroporated using a cell porater apparatus (Gibco/BRL, Gaithersburg, Md.). Cell mixtures were electroporated at 800 μF, 230 volts, in RPMI 1640 media without fetal calf serum. Following electroporation, cells were plated in 10 ml of complete media and samples collected 48 hours later for either CAT assay, p24 Gag antigen capture assay or northern blot analysis. Samples receiving rTNF-α (R & D System, Minneapolis, MN) after electroporation were collected 48 hours post-treatment for p24 Gag antigen capture assay (ABI, Bethesda, Md.).
(§5) It was of interest to determine if the peptides inhibited transcription from other polymerase II promoters. We have tested seven promoters including HTLV-1, CMV, PTHrP, IgH, RAS, RSV, and SIV. Each promoter, cloned upstream of the CAT reporter gene, was cotransfected individually with the Tat peptides under identical conditions. Electroporation was as in Example 1 but reporter genes used were HTLV-1 LTR (pU3R CAT, 5 μg) or pCMV-CAT (5 μg), containing the CMV promoter. […] For example, basal transcription of the HTLV-1 promoter decreased from 19 to 15.6 and 16.4 percent using 1 and 5,μg of the peptide analog 41/44. Similarly, Tat peptide analog 41/44 decreased Tax1 (1 μg) transactivated transcription approximately two-fold (49.2 to 22.8 percent). In other control experiments, transcription from the CMV promoter was decreased from 17.8 to 9.04 and 6.7 percent in the presence of 1 or 5 μg of Tat peptide analog 41/44.

[6] = system: HTLV-1, CMV, PTHrP, IgH, RAS, RSV, and SIV promoters; test: CAT assays with other polymerase II promoters; assay type: cell-based; conditions: seven promoters upstream of CAT, cotransfected with Tat peptides
Method: as §5

[7] = system: HIV-1 virus replication in U1/U937 co-cultivation; test: Co-cultivation of transfected U1 cells with U937 monocyte cell line; assay type: cell-based; conditions: seven days of co-cultivation U1:U937 1:5; peptide 2.5 μg with Tat protein
From the text: It was of interest to determine whether the level of virus particles produced in the presence of Tat peptide analog 41/44 was sufficient to initiate a second round of virus replication. This is an important point to consider when designing specific inhibitors for HIV, since detection of p24 or reverse transcriptase in particles is not necessarily an indication of infectious particles. Dimitrov and Martin, Nature, 375:194-195 (1994). To address this question, we utilized co-cultivation assays in which the induced Ul cells were co-cultivated with the parental U937 monocyte cell line.
Transfected U1 cells (5×10^6) were co-cultivated with the U937 cells 48 hrs after transfection. The co-cultivation assay was initially tested using either a 1:1, 1:5, or 1:25 ratio of infected to uninfected cells. A 1:5 co-cultivation was determined to be the optimal ratio in obtaining the highest viral production within a 2 week period. Cells were co-cultivated in a total of 4 mls for a period of 2 weeks. After the fist week, 2 mls of media cells was removed and 2 mls of fresh media added. Both U937 and CEM cells were seeded at a density of 0.5×10^6 cells per culture dish prior to the co-cultivation experiment.
Initially, cells were electroporated with either wild type (2.5 μg) or peptide analog 41/44 (2.5 μg), along with Tat protein. […]

[8] = system: Tat transactivation of the HIV-1 promoter; test: Transfection and CAT assay: Tat transactivation of HIV-1 LTR-CAT reporter in electroporated CEM lymphocytes; assay type: cell-based; conditions: for Tat transactivation (CAT) in presence of peptide: suppression from 95.7, Tat protein 1 μg, peptide 5 μg, HIV-1 LTR-CAT 5 μg, CEM
Method: Initial studies focused on the analysis of a series of Tat peptide analogs, containing various amino acid substitutions, for their ability to inhibit Tat transactivation of the HIV-1 promoter. CEM lymphocytes, grown to early- to mid-log phase, were electroporated with the Tat protein (1 μg), Tat core peptide 36-50 (5 μg) and the HIV-1 LTR-CAT reporter (5 μg).
as §4

[9] = system: HIV-1 viral mRNA; test: Northern blot of U1 cells, HIV-1 viral mRNA; assay type: cell-based; conditions: U1 cells treated with Tat and peptide, 48 hrs
Method: as §1, §2

In the case of “V-C-F-T-T-A-A-L-A-I-S-Y-G-R-K (SEQ ID NO:7) (VCFTTAALSISYGRK) [Tat peptide analog 41/44]”, the “expression of the cellular GAPDH gene” value [1] is reported as “no change”, the “transcription from the CMV promoter” value ([2]; 1 μg peptide) is reported as 9.04% and the “transcription from the CMV promoter” value ([2]; 5 μg peptide) is reported as 6.7%. For the same substance, the “inhibition of virus replication in U1 cells” value ([3]; comparable experiment with 36-72 peptides) was “approximately 75%”, the “inhibition of Tat-induced virus production in U1 cells” value ([3]; peptide 5 μg, in comparison to wild type peptide 5 μg, p24, 48 hours) was “approximately 85%” and the “inhibition of TBP/Tat-activated transcription” value [4] was “inhibited TBP/Tat-activated transcription”. For the same substance, the “basal transcription of the HTLV-1 promoter” value ([5]; 1 μg peptide) was 15.6%, the “basal transcription of the HTLV-1 promoter” value ([5]; 5 μg peptide) was 16.4% and the “decrease of Tax1 transactivated transcription” value ([5]; Tax1 1 μg, 49.2 to 22.8 percent) was “approximately two-fold”. The Tax1 transactivated transcription ([5]; Tax1 1 μg, decreased from 49.2) was 22.8%, the “inhibition of transcription from other polymerase II promoters” value [6] was “minimal inhibition” and the “decrease of virus production in co-cultivation” value [7] was 85%. The “Tat transactivation (CAT) in presence of peptide” value (“Tat transactivation (CAT)” below) [8] was 1.1% and the “level of HIV-1 viral mRNA” value [9] was “a decrease in the level of HIV-1 viral mRNA was detected”.
With “V-C-F-T-T-A-A-L-G-I-S-A-G-R-K (SEQ ID NO:9) (VCFTTAALGISAGRK) [Tat 36-50 (41/47)]” the “Tat transactivation (CAT)” value [8] was 12%.
“V-C-F-T-T-K-A-L-G-I-S-Y-G-R-K (SEQ ID NO:2) (VCFTTKALGISYGRK) [Tat 36-50, wild type Tat core peptide, amino acids 36-50, reference compound]” was tested, and the “decrease of virus production in co-cultivation” value [7] was “did not inhibit HIV virus replication” and the “drop in transcription activity” value ([8]; peptide included in the transfection with Tat protein) was “no apparent drop in transcription activity”.
With “V-C-F-T-T-A-A-L-G-I-A-Y-G-R-K (SEQ ID NO:8) (VCFTTAALGIAYGRK) [peptide 41/46]” the “Tat transactivation (CAT)” value [8] was 5.5%.
